Test results: PMC7497443, “Imaging CXCR4 Expression with Iodinated and Brominated Cyclam Derivatives” (Molecular Imaging and Biology, 2020)
Entries after “also recorded” stand apart in the source; their conditions may differ. Read-outs that look alike come from different tables or passages of the source.

Key:
[1] = test system: U87-CXCR4 s.c. tumors; type: in vivo; conditions: for accumulation in U87-CXCR4 s.c. tumors (in words): following i.v. injection; for in vivo de-halogenation / stability on PET imaging: thyroid radioactivity on PET images
Method: (§1) All animal experiments were approved by the Institutional Animal Care and Utilization Committee of MSKCC. Eight human PCNSL xenograft models established at MSK (CG) were available for study. Female Athymic Nude Foxn (6–8 weeks old; ENVIGO) was used for subcutaneous implantation. Cancer cells, including U87-CXCR4, U87-WT, H69, and H82 (5 × 10^6 cells suspended in […] of cell culture medium/Matrigel [BD Bioscience] [v/v 5 1/1]), were inoculated to the shoulder/flank area of the animal. Twenty to 30 days after the inoculation, imaging and tissue sampling were performed when the tumor sizes were between 100 and 350 mm^3. For orthotopic models, U87-CXCR4 cells (1 × 10^5 cells suspended in 10 μl of cell culture medium) in 30-gauge needle were injected into the right frontal cortex (stereotactic coordinates: bregma + 1.7 mm (anterior), lateral − 0.5 mm (right), and at a depth of 2.5 mm). Individuals performing implantation and stereotactic injections were blinded to the experimental design.
(§2) Animals were administrated 3.7–11.1 MBq of ^76Br- or ^124I-labeled ligands via tail vein or intraspinal injection under 2 % isoflurane anesthesia. At 1 h and 24 h after injection, PET/CT imaging (or PET imaging) was performed with an Inveon PET/CT system. The tumors were centered in the field of view, and the PET acquisition time was 10 min (or longer if needed, until 50 million events are recorded). The image data were normalized to correct for non-uniformity of response of the PET camera, dead-time count losses, positron branching ratio, and physical decay to the time of injection, but no attenuation, scatter, or partial-volume averaging correction was applied. The calibration factor of both PET scanner was measured with a mouse-size phantom composed of a cylinder uniformly filled with an aqueous solution of ^18F of known activity concentration. The acquired PET/CT (or PET) images were analyzed using Inveon Research Workplace v4.2 software (or ASIPro software). Region of interest (ROI) analysis of the acquired images was performed using ASIPro software (Siemens, Malvern, PA, USA), and the observed maximum pixel value (%ID/cc) was utilized to diminish partial volume effects of tumor. The sequential radioactivity measurements (% injected dose/cc) were plotted vs. time of acquisition.
The imaging and uptake of 6 different radiolabeled cyclam derivatives were studied in subcutaneous tumor-bearing animals (animals bearing either 2 glioma or 2 glioma plus 2 lung cancer tumors) (Fig. 4). […] Radioactivity continued to increase in the U87-CXCR4 tumors but was washed out from the U87 wt (non-CXCR4-exressing) control tumors, over 60 min. […] Biodistribution studies confirmed the imaging studies. Comparing three radiolabeled cyclam derivatives, ^76Br-HZ270-1 was accumulated most avidly by U87-CXCR4 tumors and had the lowest overall systemic organ levels at 24 h post i.v. injection (Table 3). Brain radioactivity was lowest of all organs sampled. Based on these studies, ^76Br-HZ270-1 was selected for imaging intracranial CXCR4-expressing tumors.

[2] = test system: U87-CXCR4 and U87-WT glioma cells; assay: Uptake of radiohalogenated cyclam derivatives in glioma cells; type: cell-based, human; conditions: 2.0 h incubation at 37 °C
Method: (§3) Glioma (U87-CXCR4 and U87-WT) and lung cancer (H82 and H69) cell lines with different level of CXCR4 expression were utilized for cell uptakes of all synthesized six radiotracers. Each cell line (0.25 × 10^6 per well) was seeded into 6-well plates, and on the next day, triplicate samples containing approximately 1.85 kBq of *Br or *I-labeled ligand were added and kept incubation at 37 °C for 2.0 h. After washing twice with PBS (4 °C) on the ice-bed, the cells were harvested for measurement with the gamma counter.
(§4) The uptake of 6 different radiolabeled cyclam derivatives was studied in 4 glioma and lung cancer cell lines (Fig. 2). The cell lines expressed both “high” (U87-CXCR4 and H69) and “low” (U87-WT and H82) levels of CXCR4, which were confirmed with IHC staining of CXCR4. […] These promising results from in vitro studies supported proceeding to in vivo PET imaging of CXCR4 expression in tumor-bearing animal models, using the newly developed radiolabeled cyclam derivatives.

[3] = test system: H69 and H82 lung cancer cells; assay: Uptake of radiohalogenated cyclam derivatives in lung cancer cells; type: cell-based, human; conditions: 2.0 h incubation at 37 °C
Method: as §3, §4

[4] = test system: intracranial U87-CXCR4 tumors; assay: PET imaging of intracranial U87-CXCR4 xenografts; type: in vivo, mice; conditions: i.v. injection
Method: All animal experiments were approved by the Institutional Animal Care and Utilization Committee of MSKCC. Eight human PCNSL xenograft models established at MSK (CG) were available for study. Female Athymic Nude Foxn (6–8 weeks old; ENVIGO) was used for subcutaneous implantation. Cancer cells, including U87-CXCR4, U87-WT, H69, and H82 (5 × 10^6 cells suspended in […] of cell culture medium/Matrigel [BD Bioscience] [v/v 5 1/1]), were inoculated to the shoulder/flank area of the animal. Twenty to 30 days after the inoculation, imaging and tissue sampling were performed when the tumor sizes were between 100 and 350 mm^3. […]
Animals were administrated 3.7–11.1 MBq of ^76Br- or ^124I-labeled ligands via tail vein or intraspinal injection under 2 % isoflurane anesthesia. […] The tumors were centered in the field of view, and the PET acquisition time was 10 min (or longer if needed, until 50 million events are recorded). […] The calibration factor of both PET scanner was measured with a mouse-size phantom composed of a cylinder uniformly filled with an aqueous solution of ^18F of known activity concentration. The acquired PET/CT (or PET) images were analyzed using Inveon Research Workplace v4.2 software (or ASIPro software). […] The sequential radioactivity measurements (% injected dose/cc) were plotted vs. time of acquisition. […]

[5] = test system: intracranial PCNSL-15 CXCR4-expressing tumors; assay: PET imaging and autoradiography of intracranial PCNSL-15 tumors; type: in vivo, mice
Method: as §2, with “acquisition. […]” for “acquisition.”

[6] = test system: U87-CXCR4, U87-WT, H69 and H82 s.c. tumors; assay: Biodistribution in s.c. tumor-bearing animals 24 h after i.v. injection; type: in vivo, mice; conditions: n = 3
Method: as §1, with “design. […]” for “design.”
After the last PET imaging time point, the animals were euthanized for tissue dissection. […] The total injected radioactivity per animal was determined from the measured radioactivity in an aliquot of the injectate. Data were expressed as percent of injected dose per gram of tissue (%ID/g).

[7] = target: T1, CXCR4 (Homo sapiens, UniProt P61073); assay: Competitive binding assay with U87-CXCR4 cells and 67Ga-Pentixafor; conditions: U87-CXCR4 cells, 67Ga-Pentixafor 4.0 nM, 37 °C, 2 h, triplicate; read-out: IC50 affinity
T1 construct: host or cells: U87 glioma cells transduced with CXCR4 (U87-CXCR4)
T1 sequence (P61073 whole entry): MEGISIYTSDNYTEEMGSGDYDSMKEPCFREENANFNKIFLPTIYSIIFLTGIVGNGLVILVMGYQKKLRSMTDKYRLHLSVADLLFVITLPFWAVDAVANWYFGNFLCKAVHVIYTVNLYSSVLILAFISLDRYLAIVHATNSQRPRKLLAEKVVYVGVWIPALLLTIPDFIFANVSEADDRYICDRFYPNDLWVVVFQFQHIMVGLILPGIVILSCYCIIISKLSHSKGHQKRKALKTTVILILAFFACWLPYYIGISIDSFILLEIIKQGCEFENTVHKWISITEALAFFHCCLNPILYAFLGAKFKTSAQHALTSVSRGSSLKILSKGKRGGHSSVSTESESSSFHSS
Method: In order to determine the affinity of the halogenated cyclam derivatives, competitive binding studies were performed with U87-CXCR4 cells using ^67Ga-Pentixafor (CXCR4 receptor ligand). Briefly, triplicate samples containing 0.5 × 10^6 cells pre-seeded in 6-well plate, about 1.8 kBq of ^67Ga-Pentixafor (4.0 nM) and 0.001–1000 nM of the tested ligands (total volume 1.0 ml) were incubated at 37 °C for 2 h. After incubation, the cells were washed with 2 × 1 ml of ice-cold tris-buffered saline (pH 7.4) and then collected for measurement with a WIZARD 1480 gamma counter (PerkinElmer, Waltham, MA). The IC50 values were estimated using a least squares fitting routine (GraphPad Prism 6, San Diego, CA, USA).
Competitive binding assays were performed using U87-CXCR4 cells (expressing high levels of CXCR4) and ^67Ga-Pentixafor [31, 32] as a radioligand.

[8] = test system: HIV; conditions: cited from earlier work

IC50 [7] [nM]	SMILES	Biodistribution, Blood [6]	Biodistribution, Bone [6] [%ID/g]	Biodistribution, Brain [6] [%ID/g]	Biodistribution, Heart [6] [%ID/g]	Biodistribution, Kidneys [6] [%ID/g]	Biodistribution, Liver [6] [%ID/g]	Biodistribution, Spleen [6] [%ID/g]	Biodistribution, U87 CXCR4 tumor [6] [%ID/g]	Biodistribution, U87 WT tumor [6] [%ID/g]	further results
–	[76Br]c1cc(CNCc2ccccn2)ccc1CN1CCCNCCNCCCNCC1 [^76Br-HZ270-1]	0.59 ± 0.12 %ID/g	2.9 ± 0.5	0.14 ± 0.04	1.7 ± 0.3	41.3 ± 24.1	7.6 ± 1.3	2.1 ± 0.8	9.5 ± 1.3	1.6 ± 0.7	accumulation in U87-CXCR4 s.c. tumors (in words) [1]: accumulated highest; U87-CXCR4/U87-wt uptake ratio [2]: 2.96 ± 0.67; radiotracer accumulation in U87-CXCR4 vs U87-WT cells (in words) [2]: highest; H69/H82 uptake ratio [3]: 3.93 ± 0.74; radiotracer accumulation in H69 vs H82 cells (in words) [3]: highest; PET imaging of CXCR4 expression in intracranial U87-CXCR4 tumors [4]: unsuccessful; also recorded: Very low levels of radioactivity were visualized; localization of radioactivity after spinal-CSF injection ([5]; autoradiography with CXCR4 IHC and H&E, PET 1 and 24 h post injection): not localized to CXCR4-expressing tumor; PET imaging of CXCR4 expression in intracranial PCNSL #15 tumors ([5]; i.v. or spinal-CSF injection): unsuccessful
9.47 ± 2.87	Brc1cc(CN2CCCNCCNCCCNCC2)ccc1CN1CCCNCCNCCCNCC1 [HZ261]	–	–	–	–	–	–	–	–	–	–
–	[131I]c1cc(CN2CCCNCCNCCCNCC2)ccc1CN1CCCNCCNCCCNCC1 [^131I-HZ262]	–	–	–	–	–	–	–	–	–	accumulation in U87-CXCR4 s.c. tumors (in words) [1]: accumulated highest; U87-CXCR4/U87-wt uptake ratio [2]: 3.19 ± 1.02; radiotracer accumulation in U87-CXCR4 vs U87-WT cells (in words) [2]: highest; H69/H82 uptake ratio [3]: 3.81 ± 0.40; radiotracer accumulation in H69 vs H82 cells (in words) [3]: highest
–	[124I]c1cc(CN2CCCNCCNCCCNCC2)ccc1CN1CCCNCCNCCCNCC1 [^124I-HZ262]	–	–	–	–	–	–	–	–	–	in vivo de-halogenation / stability on PET imaging [1]: greater in vivo stability; in vivo de-halogenation / stability on PET imaging ([1]; listed as 124I-AMD3100): no in vivo de-iodination
–	[76Br]c1cc(CN2CCCNCCNCCCNCC2)ccc1CNCc1ccccn1 [^76Br-HZ270-2]	1.6 ± 0.5 %ID/g	1.9 ± 0.6	0.53 ± 0.01	2.3 ± 0.4	53.7 ± 12.6	15.3 ± 3.5	2.5 ± 0.2	4.8 ± 1.6	1.5 ± 0.2	–
–	c1cc(CN2CCCNCCNCCCNCC2)ccc1CN1CCCNCCNCCCNCC1 [AMD3100]	–	–	–	–	–	–	–	–	–	inhibited HIV infection, concentration range [8]: 1 to 10 nM
–	[124I]c1cc(CNCc2ccccn2)ccc1CN1CCCNCCNCCCNCC1 [^124I-HZ271-1]	1.5 ± .05 %ID/g	0.99 ± 0.33	0.07 ± 0.04	2.0 ± 0.4	45.0 ± 5.7	30 ± 23	1.3 ± 0.7	2.0 ± 0.3	0.96 ± 0.21	in vivo de-halogenation / stability on PET imaging [1]: significant decomposition in vivo; Biodistribution, H69 tumor [6]: 2.3 ± 0.2 %ID/g; Biodistribution, H82 tumor [6]: 1.1 ± 1.0 %ID/g; Biodistribution, Lungs [6]: 2.3 ± 1.4 %ID/g
15.9 ± 0.4	Ic1cc(CN2CCCNCCNCCCNCC2)ccc1CN1CCCNCCNCCCNCC1 [HZ262]	–	–	–	–	–	–	–	–	–	–

SMILES	IC50 [7] [nM]	Biodistribution, Blood [6]	Biodistribution, Bone [6] [%ID/g]	Biodistribution, Brain [6] [%ID/g]	Biodistribution, Heart [6] [%ID/g]	Biodistribution, Kidneys [6] [%ID/g]	Biodistribution, Liver [6] [%ID/g]	Biodistribution, Spleen [6] [%ID/g]	Biodistribution, U87 CXCR4 tumor [6] [%ID/g]	Biodistribution, U87 WT tumor [6] [%ID/g]	further results
c1ccc(CNCc2ccc(CN3CCCNCCNCCCNCC3)cc2)nc1 [AMD3465, reference compound]	15 ± 5.8	–	–	–	–	–	–	–	–	–	–
